Reference: patent US5672707A (priority 1991, dated 1997)
“Also recorded” adds a separate entry of the source. Where two headings read alike, the source gives them in different places.

Experiments:
[1] = tested on: K channels; assay: Ionic permeabilities of excitable membranes, voltage clamp in the Ranvier node; assay type: cell-based, frog; details: for Block of K-channels IC (M): Ranvier node of the frog, voltage clamp
[2] = tested on: mice; assay: Step-down test, scopolamine induced amnesia; assay type: in vivo
Experimental: (§1) Psychoneurotropic activity of the declared compounds and their influence on learning and memory were observed using unbred male (18-20 g) mice and 180-200 g) rats, held at standard conditions (room temperature 21°-22° C., 12-hours lighting schedule, food and water ad libitum).

[3] = tested on: mice; assay: Psychotropic activity test: arecoline induced hyperkynesis; assay type: in vivo; details: intraperitoneally, dose 1/20 of LD
[4] = tested on: rats; assay: Passive avoidance test in normal rats, 50% acquisition; assay type: in vivo; details: for change in vivo at 0.1 mg/kg: Rattus norvegicus, 20 min, read-out: Increase of the number of correct trails (% to control). Passive avoidance test (rats)
Experimental: as §1
(§2) The influence of drugs on reflex conditioning in rats was studied by the passive avoidance test in conditions of 50% acquisition. The effect of the compound was estimated by the increase of the relative number of learned animals with respect to that of control group. […] The other reference drug--noothropic agent piracetam--was given in the dose 250 mg/kg 60 min before training. Amnestic syndrome was stimulated by 20 days application of Sc at the daily dose of 1 mg/kg intraperitoneally. […] The passive avoidance test was performed within 24 hours after the last application of test preparations.

[5] = target: T1, Acetylcholinesterase, enzyme from human erythrocytes (Homo sapiens, UniProt P22303); assay: Acetylcholinesterase inhibition, spectrophotometric technique of Ellman; assay type: biochemical; details: for IC50: Acetylcholinesterase inhibition IC50 (M); for IC50 / Acetylcholinesterase inhibition IC50 (M): enzyme from human erythrocytes, Table 5
T1 construct: on the enzyme from human erythrocytes; from tissue; host or cells: human erythrocytes
Experimental: Acetylcholinesterase inhibition under the action of preparations was assessed by the spectrophotometric technique of Ellman on the enzyme from human erythrocytes.

[6] = tested on: mice; assay: Psychotropic activity test: motor activity; assay type: in vivo; details: intraperitoneally, dose 1/20 of LD
[7] = in vivo; details: intraperitoneal injection, Table 5; for LD50: in vivo, ip, read-out: LD50 (mg/kg) by Kerber
Experimental: as §1
Acute toxicity was studied by the method of Kerber with intra peritoneal drug injection.

[8] = tested on: old rats; assay: Passive avoidance test in old rats; assay type: in vivo; details: old rats (18 month), 20 days application, 1 mg/kg (piracetam 250 mg/kg)
Experimental: as §2
Improvement of animal performance was accompanied by the normalizing of brain synaptosomes microviscosity under the action of all the substances tested. […] The latter observation indicates to the possible interference of amiridine and substance Vo into the processes of atherogenesis in old animals.

[9] = tested on: rats; assay: Passive avoidance test on the model of amnestic syndrome (multiple scopolamine injection); assay type: in vivo; details: for Passive avoidance latency: rats, scopolamine 1 mg/kg 20 days, then drug 10 days (1 mg/kg; piracetam 250 mg/kg)
Experimental: The influence of drugs on reflex conditioning in rats was studied by the passive avoidance test in conditions of 50% acquisition. The effect of the compound was estimated by the increase of the relative number of learned animals with respect to that of control group. […] The passive avoidance test was performed within 24 hours after the last application of test preparations.

[10] = tested on: rat adipocytes; assay: Lipid content in incubation medium after incubation of adipocytes; assay type: cell-based; details: for FFA/TG in incubation medium / PL/CL in incubation medium / PL/TG in incubation medium: Table 12
Experimental: (§3) Lipid regulative activity of the declared compounds--derivatives of 9-amino acridine--were evaluated in vitro[…] using rat adipocytes. Adipocytes were separated from adipose tissue of testis appendages of adult male rats. Lipid composition analysis was performed by the method of thin-layer chromatography.
(§4) Quantitative analysis of phospholipids (PL), mono- and diacylglycerides (MDG), triacylglycerides (TG), free fatty acids (FFA), free cholesterol (FCL), and methyl esters of fatty acids (MEFA) was performed by the method of spectrophotometry.

[11] = tested on: rat adipocytes; assay: Lipid composition of adipocytes after incubation with compounds; assay type: cell-based; details: for FFA/TG in adipocytes / PL/CL in adipocytes / PL/TG in adipocytes: cells, Table 11; for FFAc/FFAm / PLc/PLm: distribution between cells and incubation medium, Table 13
Experimental: as §3, §4

[12] = tested on: membranes of brain synaptosomes; assay: Microviscosity of brain synaptosome membranes, amnestic syndrome model; assay type: in vivo, rats; details: 10 days application course
[13] = ip, rats, 0.1 mg/kg i.p. 20 min before training, piracetam 250 mg/kg 60 min before training
[14] = rats, 0.1 mg/kg i.p. 20 min before training, piracetam 250 mg/kg 60 min before training

T1 sequence (P22303-2 with tags, fused parts or gaps limits assumed): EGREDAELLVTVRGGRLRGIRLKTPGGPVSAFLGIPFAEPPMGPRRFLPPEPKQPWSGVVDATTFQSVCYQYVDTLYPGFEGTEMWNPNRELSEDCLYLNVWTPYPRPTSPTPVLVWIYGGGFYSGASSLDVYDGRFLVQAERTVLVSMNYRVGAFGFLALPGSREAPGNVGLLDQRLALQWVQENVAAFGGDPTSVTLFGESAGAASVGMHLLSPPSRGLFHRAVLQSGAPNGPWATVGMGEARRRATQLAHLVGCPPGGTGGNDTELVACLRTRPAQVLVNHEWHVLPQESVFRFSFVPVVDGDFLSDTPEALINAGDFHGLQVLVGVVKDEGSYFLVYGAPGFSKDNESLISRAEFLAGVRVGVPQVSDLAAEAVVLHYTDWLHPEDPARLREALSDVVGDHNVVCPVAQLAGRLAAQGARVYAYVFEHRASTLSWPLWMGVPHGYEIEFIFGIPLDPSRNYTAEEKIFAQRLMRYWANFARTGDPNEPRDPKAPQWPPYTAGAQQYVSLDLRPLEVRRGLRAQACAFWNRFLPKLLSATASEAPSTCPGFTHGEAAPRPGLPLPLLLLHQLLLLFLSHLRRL

| Structure (SMILES) | The shift of activation region of K channels: substance lowest concentrations in M producing measureable shift of 1-2 mV [1] | Antiamnestic activity in Step-down test (% of mice with latency > cut off) [2] | Increase of duration of arecoline induced hyperkynesis (% to control) [3] | change in vivo at 0.1 mg/kg [4, 13] [%] | IC50 [5] [M] | Motor activity increment (% to control) [6] | LD50 [7] [mg/kg] | Performance of normal rats in passive avoidance test ([4]; normal rats) | also measured |
| --- | --- | --- | --- | --- | --- | --- | --- | --- | --- |
| CC1(C)CC(=O)c2c(nc3ccccc3c2N)C1 [IVb] | no effect | 0 % of mice | 33 % to control | 30 | 3.5e-06 | 0 % to control | 70 ± 4.3 | – | Block of K-channels IC (M) [1]: no effect |
| NC(=O)CN1CCCC1=O [Piracetam, piracetam, reference compound] | – | – | 0 % to control | – | – | 0 % to control | 1000 | – | Passive avoidance latency in 7 days after training [8]: 120.0 ± 24.3 s; change in vivo at 0.1 mg/kg [4]: 63%; Acetylcholinesterase inhibition IC50 (M) [5]: no effect; Passive avoidance latency [9]: 162.3 ± 13.3 s |
| CN1[C@@H]2C[C@@H](OC(=O)[C@H](CO)c3ccccc3)C[C@H]1[C@@H]1O[C@@H]12 [Scopolamine (Sc), scopolamine] | – | – | – | – | – | – | – | – | Passive avoidance latency [9]: 70.4 ± 10.5 s |
| CC1(C)C=Cc2c(nc3ccccc3c2N)C1 [VIIb] | – | 25 % of mice | 25 % to control | 40 | 7.5e-08 | 41 % to control | 37.5 ± 0.9 | statistically significantly improved performance of normal rats | Block of K-channels IC (M) [1]: no effect; Antiamnestic activity in Step-down test [2]: pronounced antiatonestic activity, comparable with that of amiridine and tacrine |
| CC1(C)C=Cc2c(nc3ccccc3c2NCc2ccc(Cl)cc2)C1 [VIId] | – | 20 % of mice | 15 % to control | 60 | 6e-09 | 28 % to control | 126 ± 8.9 | statistically significantly improved performance of normal rats | Improving learning and memory compared with amiridine and piracetam ([4]; normal rats, passive avoidance test): as effective in improving learning and memory as amiridine and piracetam; FFA/TG in incubation medium [10]: 0.96; PL/CL in incubation medium [10]: 0.75; PL/TG in incubation medium [10]: 0.67; Change of lipid composition in adipocytes [11]: significaut lipolytic effect; also recorded: significant lipolytic effect; Lipid-regulative effect compared with probucol [11]: not inferior; Potency of effect on lipid composition of adipocytes [11]: most potent effect on lipid composition of adipocytes; FFA/TG in adipocytes [11]: 1.16; PL/CL in adipocytes [11]: 0.69; PL/TG in adipocytes [11]: 0.73; FFAc/FFAm [11]: 1.07; PLc/PLm [11]: 0.97 |
| Cc1ccc(CNc2c3c(nc4ccccc24)CC(C)(C)CC3O)c(C)c1 (centres unmarked) [VIi] | no effect | 0 % of mice | 46 % to control | – | 1e-06 | 13 % to control | – | – | Increase of the number of correct trails (% to control). Passive avoidance test (rats) [4, 14]: 15 % to control; LD50 (mg/kg) by Kerber [7]: 75.0 ± 1.2 mg/kg |
| Cc1ccc(CNc2c3c(nc4ccccc24)CC(C)(C)CC3O)c(C)c1 (centres unmarked) [VIj] | no effect | 0 % of mice | 13 % to control | – | 2.5e-06 | 55 % to control | – | statistically significantly improved performance of normal rats | Increase of the number of correct trails (% to control). Passive avoidance test (rats) [4, 14]: 40 % to control; FFA/TG in incubation medium [10]: 1.03; PL/CL in incubation medium [10]: 0.65; PL/TG in incubation medium [10]: 0.62; FFA/TG in adipocytes [11]: 1.08; PL/CL in adipocytes [11]: 0.80; PL/TG in adipocytes [11]: 0.85; FFAc/FFAm [11]: 0.95; PLc/PLm [11]: 1.24; LD50 (mg/kg) by Kerber [7]: 33.4 ± 3.2 mg/kg |
| CC1(C)CC(=O)c2c(nc3ccccc3c2NCc2ccccc2)C1 [Vb] | no effect | 0 % of mice | 15 % to control | 25 | – | 80 % to control | 735 ± 21.8 | – | AChE inhibition IC (M) ([5]; Table 6): no effect; Acetylcholinesterase inhibition IC50 (M) [5]: no effect |
| CC1(C)CC(=O)c2c(nc3ccccc3c2NCc2ccc(Cl)cc2)C1 [Vf] | no effect | 0 % of mice | 0 % to control | 0 | 8e-05 | 13 % to control | > 1000 | – | – |
| CCCCNc1c2c(nc3ccccc13)CC(C)(C)CC2=O [Vo] | – | – | – | – | – | – | – | – | Microviscosity of brain synaptosomes, amnestic syndrome [12]: normalizing of microviscosity of brain synaptosomes; Ejection of triacylglycerides into external medium [10]: enhanced ejection of triacylglycerides into external medium; Change of lipid composition in adipocytes [11]: Accumulation of phospholipids in a cell; Content of methyl esters of fatty acids in adipocytes [11]: sharp decreases; PL/TG relations and cell cholesterol level [11]: increase PL/TG relations and decrease cell cholesterol level; Potency of effect on lipid composition of adipocytes [11]: most potent effect on lipid composition of adipocytes; Performance in passive avoidance test, amnestic syndrome ([9]; 10 days application course): improved performance in passive avoidance test in the 10 days application course to the level achieved under the treatment with reference drugs |
